According to patent US20040224958A1, “Pyridopyrimidinone derivatives for treatment of neurodegenerative disease” (priority 2000, published 2004):

Key:
cdk4/D = cdk4/D (Homo sapiens, UniProt P11802); assay: Cyclin-Dependent Kinase 4 (cdk4) Assay; format: biochemical; settings: read-out: cdk4/D IC50
Cdk5/p25 = Cdk5/p25 (Homo sapiens, UniProt Q00535); assay: Cyclin-Dependent Kinase 5 High Throughput Screening (cdk5-HTS) Assay; format: biochemical; settings: high throughput screen
Summary of the method: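 IC50 determined from 33P incorporation into GST-RbCOOH captured on glutathione plates and read by scintillation counting. Reaction: 1.0 μg/mL Cdk5/p25, 20 μM [γ33P]ATP, pH 7.4 Tris buffer with MgCl2 and DTT, 30 min at room temperature, stopped with EDTA.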

cdk2/cyclinE = cdk2/cyclinE (Homo sapiens, UniProt P24941); assay: Cyclin-Dependent Kinase Assay cdk2/cyclinE; settings: cdk2/E IC50
cdk2/cyclinA = cdk2/cyclinA (Homo sapiens, UniProt P24941); assay: Cyclin-Dependent Kinase Assay cdk2/cyclinA; settings: cdk2/A IC50
cdc2/cyclinB = cdc2/cyclinB (Homo sapiens, UniProt P06493); assay: Cyclin-Dependent Kinase Assay cdc2/cyclinB
cdc2/cyclinB, sequence (P06493 whole entry): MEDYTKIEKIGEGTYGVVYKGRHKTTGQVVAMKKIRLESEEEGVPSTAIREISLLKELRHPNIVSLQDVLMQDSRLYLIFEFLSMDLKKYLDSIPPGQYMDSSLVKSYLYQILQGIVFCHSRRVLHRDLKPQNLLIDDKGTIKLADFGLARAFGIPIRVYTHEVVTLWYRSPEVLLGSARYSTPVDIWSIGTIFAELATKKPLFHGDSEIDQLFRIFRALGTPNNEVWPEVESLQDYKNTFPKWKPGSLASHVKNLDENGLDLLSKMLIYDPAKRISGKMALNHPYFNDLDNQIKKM
cdc2/cyclinB, sequence (P14635 whole entry, further chain): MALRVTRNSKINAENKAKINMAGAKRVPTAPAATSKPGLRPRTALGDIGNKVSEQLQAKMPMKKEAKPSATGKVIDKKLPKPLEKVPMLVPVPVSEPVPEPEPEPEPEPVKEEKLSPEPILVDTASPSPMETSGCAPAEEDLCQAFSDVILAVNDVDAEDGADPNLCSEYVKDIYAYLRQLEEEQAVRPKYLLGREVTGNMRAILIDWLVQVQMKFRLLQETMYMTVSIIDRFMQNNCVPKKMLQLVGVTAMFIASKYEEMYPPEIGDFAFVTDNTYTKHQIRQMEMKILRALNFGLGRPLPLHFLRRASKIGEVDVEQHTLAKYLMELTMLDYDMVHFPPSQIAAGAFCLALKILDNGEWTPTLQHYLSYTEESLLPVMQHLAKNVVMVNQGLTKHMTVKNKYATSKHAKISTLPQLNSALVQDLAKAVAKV

cdk4/D, sequence (P11802 whole entry): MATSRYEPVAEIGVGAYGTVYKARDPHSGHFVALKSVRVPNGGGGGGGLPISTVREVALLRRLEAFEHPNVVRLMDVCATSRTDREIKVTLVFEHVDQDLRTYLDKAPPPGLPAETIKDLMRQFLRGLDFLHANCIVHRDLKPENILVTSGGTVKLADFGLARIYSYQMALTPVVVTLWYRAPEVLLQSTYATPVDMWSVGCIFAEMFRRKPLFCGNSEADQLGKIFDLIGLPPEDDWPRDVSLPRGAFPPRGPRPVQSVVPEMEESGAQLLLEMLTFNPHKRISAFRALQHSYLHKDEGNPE
cdk4/D, sequence (P24385 whole entry, further chain): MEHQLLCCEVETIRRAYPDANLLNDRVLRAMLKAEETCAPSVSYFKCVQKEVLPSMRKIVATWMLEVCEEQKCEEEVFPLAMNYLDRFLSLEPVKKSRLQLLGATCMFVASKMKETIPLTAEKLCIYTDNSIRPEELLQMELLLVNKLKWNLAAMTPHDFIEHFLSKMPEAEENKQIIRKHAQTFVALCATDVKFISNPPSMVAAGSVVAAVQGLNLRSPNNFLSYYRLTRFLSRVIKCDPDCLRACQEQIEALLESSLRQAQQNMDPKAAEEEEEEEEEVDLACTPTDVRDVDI

Row | SMILES | IC50 (cdk4/D) | IC50 (Cdk5/p25) | IC50 (cdk2/cyclinE) | IC50 (cdk2/cyclinA) | IC50 (cdc2/cyclinB)
1 | CCCn1c(=O)ccc2cnc(Nc3ccc(F)c(C(F)(F)F)c3)nc21 [Example 335, 2-(4-Fluoro-3-trifluoromethyl-phenylamino)-8-propyl-8H-pyrido[2,3-d]pyrimidin-7-one] | 1600 nM | 340 nM | 160 nM | 1100 nM | 250 nM
2 | CCCCn1c(=O)ccc2cnc(Nc3ccc(F)c(C)c3)nc21 [Example 392, 8-Butyl-2-(4-fluoro-3-methyl-phenylamino)-8H-pyrido[2,3-d]pyrimidin-7-one] | 760 nM | 110 nM | 77 nM | 360 nM | 140 nM
3 | CCCn1c(=O)ccc2cnc(Nc3ccc(C#N)c(NC(C)=O)c3)nc21 [Example 340, N-[2-Cyano-5-(7-oxo-8-propyl-7,8-dihydro-pyrido[2,3-d]pyrimidin-2-ylamino)-phenyl]-acetamide] | 310 nM | 170 nM | 350 nM | 960 nM | 1300 nM
4 | CCC(CC)n1c(=O)ccc2cnc(Nc3cc(Cl)c(N)c(Cl)c3)nc21 [Example 521, 2-(4-Amino-3,5-dichloro-phenylamino)-S-(1-ethyl-propyl)-8H-pyrido[2,3-d]pyrimidin-7-one] | 67 nM | 42 nM | 98 nM | 220 nM | 67 nM
5 | CCC(CC)n1c(=O)ccc2cnc(Nc3ccc(F)c(C(F)(F)F)c3)nc21 [Example 502, 8-(1-Ethyl-propyl)-2-(4-fluoro-3-trifluoromethyl-phenylamino)-8H-pyrido[2,3-d]pyrimidin-7-one] | 350 nM | 21 nM | 68 nM | 360 nM | 100 nM
6 | CCC(C)n1c(=O)ccc2cnc(Nc3ccc(Cl)c(C(F)(F)F)c3)nc21 (centres unmarked) [Example 468, 8-sec-Butyl-2-(4-chloro-3-trifluoromethyl-phenylamino)-8H-pyrido[2,3-d]pyrimidin-7-one] | 950 nM | 26.5 nM | 330 nM | 530 nM | 340 nM
7 | CCCn1c(=O)ccc2cnc(Nc3ccc(F)cc3F)nc21 [Example 321, 2-(2,4-Difluoro-phenylamino)-8-propyl-8H-pyrido[2,3-d]pyrimidin-7-one] | 3640 nM | 648 nM | 1110 nM | 3160 nM | 1240 nM
8 | COc1ccc(Nc2ncc3ccc(=O)n(CC(F)(F)F)c3n2)cc1OC [Example 600, 2-(3,4-Dimethoxy-phenylamino)-8-(2,2,2-trifluoro-ethyl)-8H-pyrido[2,3-d]pyrimidin-7-one] | 1780 nM | 124 nM | 970 nM | 1600 nM | 905 nM
9 | CCCn1c(=O)ccc2cnc(Nc3ccc(Br)c(C)c3)nc21 [Example 360, 2-(4-Bromo-3-methyl-phenylamino)-8-propyl-8H-pyrido[2,3-d]pyrimidin-7-one] | 390 nM | 86 nM | 990 nM | 1000 nM | 340 nM
10 | CCC(C)n1c(=O)ccc2cnc(Nc3ccc(I)c(Cl)c3)nc21 (centres unmarked) [Example 464, 8-sec-Butyl-2-(3-chloro-4-iodo-phenylamino)-8H-pyrido[2,3-d]pyrimidin-7-one] | 150 nM | 17 nM | 130 nM | 310 nM | 170 nM
11 | CCCn1c(=O)ccc2cnc(Nc3ccc(O)c(Cl)c3)nc21 [Example 327, 2-(3-Chloro-4-hydroxy-phenylamino)-8-propyl-8H-pyrido[2,3-d]pyrimidin-7-one] | 189 nM | 31 nM | 25 nM | 67 nM | 53 nM

The remaining lines, values ahead:

Row | IC50 (cdk4/D) | IC50 (Cdk5/p25) | IC50 (cdk2/cyclinE) | IC50 (cdk2/cyclinA) | IC50 (cdc2/cyclinB) | SMILES
12 | 2120 nM | 114 nM | 520 nM | 2370 nM | 429 nM | CCCn1c(=O)ccc2cnc(Nc3ccc(Br)c(C(F)(F)F)c3)nc21 [Example 314, 2-(4-Bromo-3-trifluoromethyl-phenylamino)-8-propyl-8H-pyrido[2,3-d]pyrimidin-7-one]
13 | 270 nM | 94 nM | 91 nM | 87 nM | 82 nM | Cc1cc(Nc2ncc3ccc(=O)n(C4CCCC4)c3n2)cc(C)c1O [Example 559, 8-Cyclopentyl-2-(4-hydroxy-3,5-dimethyl-phenylamino)-8H-pyrido[2,3-d]pyrimidin-7-one]
14 | 690 nM | 92.5 nM | 35.3 nM | 75 nM | 80 nM | CCCn1c(=O)ccc2cnc(Nc3cc(Cl)c(O)c(Cl)c3)nc21 [Example 328, 2-(3,5-Dichloro-4-hydroxy-phenylamino)-8-propyl-8H-pyrido[2,3-d]pyrimidin-7-one]
15 | 114 nM | 13 nM | 22 nM | 40 nM | 25.5 nM | CCC(C)n1c(=O)ccc2cnc(Nc3ccc(O)c(Cl)c3)nc21 (centres unmarked) [Example 452, 8-sec-Butyl-2-(3-chloro-4-hydroxy-phenylamino)-8H-pyrido[2,3-d]pyrimidin-7-one]
16 | 486 nM | 69.4 nM | 138 nM | 331 nM | 215 nM | CCCn1c(=O)ccc2cnc(Nc3ccc(OC)c(Cl)c3)nc21 [Example 310, 2-(3-Chloro-4-methoxy-phenylamino)-8-propyl-8H-pyrido[2,3-d]pyrimidin-7-one]
17 | 1100 nM | 590 nM | 300 nM | 2600 nM | 600 nM | CCCCn1c(=O)ccc2cnc(Nc3cc(OC)cc(C(F)(F)F)c3)nc21 [Example 396, 8-Butyl-2-(3-methoxy-5-trifluoromethyl-phenylamino)-8H-pyrido[2,3-d]pyrimidin-7-one]
18 | 350 nM | 49.2 nM | 79.7 nM | 753 nM | 86.7 nM | CCC(CC)n1c(=O)ccc2cnc(Nc3cccc(I)c3)nc21 [Example 490, 8-(1-Ethyl-propyl)-2-(3-iodo-phenylamino)-8H-pyrido[2,3-d]pyrimidin-7-one]
19 | 938 nM | 39.1 nM | 69.3 nM | 418 nM | 134 nM | CCC(CC)n1c(=O)ccc2cnc(Nc3ccc(F)c(Cl)c3)nc21 [Example 481, 2-(3-Chloro-4-fluoro-phenylamino)-8-(1-ethyl-propyl)-8H-pyrido[2,3-d]pyrimidin-7-one]
20 | 130 nM | 18 nM | 29 nM | 56 nM | 62 nM | CCC(CC)n1c(=O)ccc2cnc(Nc3ccc4oc(=O)[nH]c4c3)nc21 [Example 517, 8-(1-Ethyl-propyl)-2-(2-oxo-2,3-dihydro-benzoxazol-5-ylamino)-8H-pyrido[2,3-d]pyrimidin-7-one]
21 | 90 nM | 91 nM | 85 nM | 340 nM | 220 nM | CCCCn1c(=O)ccc2cnc(Nc3ccc(C#N)c(NC(C)=O)c3)nc21 [Example 395, N-[5-(8-Butyl-7-oxo-7,8-dihydro-pyrido[2,3-d]pyrimidin-2-ylamino)-2-cyano-phenyl]-acetamide]
22 | 140 nM | 21 nM | 160 nM | 590 nM | 160 nM | Cc1ccc(Nc2ncc3ccc(=O)n(C(C)C)c3n2)cc1I [Example 427, 2-(3-Iodo-4-methyl-phenylamino)-8-isopropyl-8H-pyrido[2,3-d]pyrimidin-7-one]
23 | 130 nM | 25 nM | 110 nM | 310 nM | 130 nM | CCC(C)n1c(=O)ccc2cnc(Nc3ccc(Cl)c(C)c3)nc21 (centres unmarked) [Example 456, 8-sec-Butyl-2-(4-chloro-3-methyl-phenylamino)-8H-pyrido[2,3-d]pyrimidin-7-one]
24 | 2000 nM | 160 nM | 950 nM | 875 nM | 415 nM | CCCn1c(=O)ccc2cnc(Nc3ccc(OC)c(OC)c3)nc21 [Example 331, 2-(3,4-Dimethoxy-phenylamino)-8-propyl-8H-pyrido[2,3-d]pyrimidin-7-one]
25 | 180 nM | 99 nM | 180 nM | 200 nM | 290 nM | O=c1ccc2cnc(Nc3cc(F)cc(F)c3)nc2n1C1CCCC1 [Example 548, 8-Cyclopentyl-2-(3,5-difluoro-phenylamino)-8H-pyrido[2,3-d]pyrimidin-7-one]
26 | 150 nM | 440 nM | 1500 nM | 1100 nM | 1400 nM | CC(=O)Nc1cc(Nc2ncc3ccc(=O)n(C(C)C)c3n2)ccc1C [Example 440, N-[5-(8-Isopropyl-7-oxo-7,8-dihydro-pyrido[2,3-d]pyrimidin-2-ylamino)-2-methyl-phenyl]-acetamide]
27 | 1690 nM | 244 nM | 183 nM | 430 nM | 165 nM | CCn1c(=O)ccc2cnc(Nc3ccc(O)c(Cl)c3)nc21 [Example 290, 2-(3-Chloro-4-hydroxy-phenylamino)-8-ethyl-8H1-pyrido[2,3-d]pyrimidin-7-one]
28 | 365 nM | 17.5 nM | 53 nM | 57.5 nM | 31.5 nM | CCC(CC)n1c(=O)ccc2cnc(Nc3ccc4cn[nH]c4c3)nc21 [Example 518, 8-(1-Ethyl-propyl)-2-(1H-indazol-6-ylamino)-8H-pyrido[2,3-d]pyrimidin-7-one]
